In patent publication US7973039B2, “Sulfonyl amino cyclic derivatives and use thereof” (Merck Serono SA, priority 2004, dated 2011):

Legend:
metalloelastase (MMP-12) = metalloelastase (MMP-12) (Homo sapiens, UniProt P39900); experiment: MMP-12 enzyme inhibition assay (coumarin-labelled peptide substrate McaPLGLDpaAR); assay type: biochemical; settings: fluorogenic substrate McaPLGLDpaAR, 37° C., 2 hours
Procedure: (§1) Compounds of the invention were tested to assess their activities as inhibitors of MMP-1, MMP-2, MMP-9 and MMP-12.
(§2) Stock solutions were made up as follows: Assay Butter: 100 mM Tris-HCl pH 7.6 containing 100 mM NaCl, 10 mM CaCl2, and 0.05% Brij 35.
Substrate: 0.4 mM McaPLGLDpaAR (from Bachem) (0.437 mg/ml) stock solution in 100% DMSO (stored at −20° C.). Dilute to 8 μM in assay butter. […]
(§3) Test Compounds were prepared initially as 10 mM compound solution in 100% DMSO, diluted to 1 mM in 100% DMSO, then serially diluted 3-fold in 100% DMSO across columns 1-10 of a 96-well microtitre plate Assay concentration range, 100 μM (column 1) to 5.1 nM (column 10).
(§4) The assay was performed in a total volume of 100 μL per well in 96-well microtitre plates. Activated enzyme (20 μL) was added to the wells followed by 20 μL of assay butter. Appropriate concentrations of test compounds dissolved in 10 μL of DMSO were then added followed by 50 μL of McaPLGLDpaAR (8 μM, prepared by dilution of DMSO stock in assay butter). For each as say ten concentrations of test compound were examined in duplicate. Control wells lack either enzyme or test compound. The reactions were incubated at 37° C. for 2 hours. The fluorescence at 405 nm was measured immediately with an SLT Fluostar fluorometer (SL T Labinstruments GmbH, Grödig, Austria) using 320 nm excitation, without stopping the reaction.
(§5) The effect of the test compound was determined from the dose response curve generated by the 10 duplicate concentrations of inhibitor. The IC50 (the concentration of compound required to give a 50% decrease in enzyme activity) was obtained by fitting data to the equation, Y=a+((b−a)/(1+(c/X)^d)). (Y=inhibition achieved for a particular dose; X=the dose in nM; a=minimum y or zero % inhibition; b=maximum y or 100% inhibition; c=is the IC50; d=is the slope). The result was rounded to one significant figure.
Compounds of the invention were tested for inhibitory activity against metalloelastase (MMP-12) in an assay using a coumarin-labelled peptide substrate, (7-methoxycoumarin-4-yl)acetyl-Pro-Leu-Gly-Leu-(3-[2,4dinitrophenyl]-L-2,3-diaminopropionyl)-Ala-Arg-NH2 (McaPLGLDpaAR) (Knight et al, 1992, above). The protocol for this assay was as described for the MMP-9 assay above.

[1] = system: IL-2-induced peritoneal recruitment of lymphocytes; experiment: IL-2-induced peritoneal recruitment of lymphocytes; assay type: in vivo, C3H/HEN mice; settings: Mus musculus, Lymphocyte; mice, route po, given 15 min prior to IL-2 (20 μg/kg i.p.), lymphocytes counted 24 h after IL-2; read-out: ED50 in IL-2-induced peritoneal recruitment of lymphocytes model
Procedure: Administration of IL-2 intraperitoneally causes migration of lymphocytes into the intraperitoneal cavity. This is a model for the cellular migration that occurs during inflammation.
C3H/HEN mice (Elevage Janvier, France) were intraperitoneally injected with IL-2 (Serono Pharmaceutical Research Institute, 20 μg/kg, in saline).
Compounds of the invention were suspended in 0.5% carboxymethylcellulose (CMC)/0.25% tween-20 and were administered by s.c. or p.o. route (10 ml/kg) 15 min prior to administration of IL-2.
Twenty-four hours after administration of IL-2, peritoneal white blood cells were collected by 3 successive lavages of the peritoneal cavity with 5 ml phosphate buffered saline (PBS)-1 mM EDTA (+4° C.). The suspension was centrifuged (1700 g×10 min at +4° C.). The resulting pellet was suspended in 1 ml PBS-1 mM EDTA.
Lymphocytes were identified and counted using a Beckman/Coulter counter.
The animals were divided into 6 groups (6 mice each group):
Group 1: (baseline) received 0.5% CMC/0.25% tween-20 (vehicle of compound of the invention) and saline (vehicle of IL-2);
Group 2: (control IL-2) received 0.5% CMC/0.25% tween-20 and injection of IL-2;
Group 3: Experimental group (Compound of the invention Dose 1) received a compound of the invention and injection of IL-2; […]
Inhibition of lymphocyte recruitment was calculated as follows: […]

collagenase (MMP-1) = biological target: T1, collagenase (MMP-1) (Homo sapiens, UniProt P03956); experiment: MMP-1 enzyme inhibition assay (coumarin-labelled peptide substrate McaPLGLDpaAR); assay type: biochemical; settings: fluorogenic substrate McaPLGLDpaAR, 37° C., 2 hours
T1 sequence (P03956 100-469): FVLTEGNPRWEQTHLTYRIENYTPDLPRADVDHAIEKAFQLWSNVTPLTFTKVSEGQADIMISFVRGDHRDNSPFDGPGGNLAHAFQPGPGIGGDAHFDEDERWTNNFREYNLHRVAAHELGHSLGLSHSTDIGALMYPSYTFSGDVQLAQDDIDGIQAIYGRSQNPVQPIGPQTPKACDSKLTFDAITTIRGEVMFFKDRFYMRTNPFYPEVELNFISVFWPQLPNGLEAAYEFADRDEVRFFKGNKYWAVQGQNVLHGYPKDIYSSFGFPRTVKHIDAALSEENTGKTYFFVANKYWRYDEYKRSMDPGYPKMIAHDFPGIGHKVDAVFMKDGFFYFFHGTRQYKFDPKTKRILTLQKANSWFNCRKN
Procedure: as §1, §2
Substrate: 0.4 mM McaPLGLDpaAR (from Bachem) (0.437 mg/ml) stock solution in 100% DMSO (stored at −20° C.). Dilute to 8 μM in assay butter.
Enzyme: Recombinant human 92 kDa gelatinase (MMP-9; APMA (4-aminophenyl mercuric acetate)—activated if necessary) appropriately diluted in assay butter.
as §3, §4, §5
Compounds of the invention were tested for inhibitory activity against collagenase (MMP-1) in an assay using a coumarin-labelled peptide substrate, (7-methoxycoumarin-4-yl)acetyl-Pro-Leu-Gly-Leu-(3-[2,4-dinitrophenyl]-L-2,3diaminopropionyl)-Ala-Arg-NH2 (McaPLGLDpaAR) (Knight et al, 1992, above). The protocol for this assay was as described for the MMP-9 assay above.

Chain of metalloelastase (MMP-12) (P39900 106-470): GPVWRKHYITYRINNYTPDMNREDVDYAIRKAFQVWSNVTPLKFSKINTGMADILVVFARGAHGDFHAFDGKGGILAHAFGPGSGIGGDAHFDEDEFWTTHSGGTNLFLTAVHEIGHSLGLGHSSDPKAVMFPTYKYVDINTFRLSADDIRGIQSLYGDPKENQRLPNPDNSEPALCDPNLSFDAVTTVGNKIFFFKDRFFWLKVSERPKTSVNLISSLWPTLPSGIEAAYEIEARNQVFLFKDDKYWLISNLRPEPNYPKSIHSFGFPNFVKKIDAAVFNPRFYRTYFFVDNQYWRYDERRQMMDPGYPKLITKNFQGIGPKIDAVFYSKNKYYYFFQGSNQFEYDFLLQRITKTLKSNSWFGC

IC50 (metalloelastase (MMP-12)) | IC50 (collagenase (MMP-1)) | Structure (SMILES) | ED50 [1]
95 nM | > 5000 nM | O=CN(O)C(C#Cc1ccc(-c2ncon2)cc1)CS(=O)(=O)N1CCN(c2ccc(F)cc2)CC1 (centres unmarked) [Example 27, {1-({[4-(4-fluorophenyl)piperazin-1-yl]sulfonyl}methyl)-3-[4-(1,2,4-oxadiazol-3-yl)phenyl]prop-2-yn-1-yl}hydroxyformamide] | –
20 nM | > 5000 nM | CC(C)(CC#Cc1ccccc1)C(CS(=O)(=O)N1CCN(c2ccc(F)cc2)CC1)N(O)C=O (centres unmarked) [Example 36, [1-({[4-(4-fluorophenyl)piperazin-1-yl]sulfonyl}methyl)-2,2-dimethyl-5-phenylpent-4-yn-1-yl]hydroxyformamide] | –
6 nM | > 5000 nM | CCN(CC)CC#CC(CS(=O)(=O)N1CCC(c2ccc(OC)cc2)CC1)N(O)C=O (centres unmarked) [Example 37, [4-(diethylamino)-1-({[4-(4-methyloxyphenyl)piperidin-1-yl]sulfonyl}methyl)but-2-yn-1-yl]hydroxyformamide] | –
24 nM | > 5000 nM | CCCCCC#CC(CS(=O)(=O)N1CCCN(c2ccc(OCC)cc2)CC1)N(O)C=O (centres unmarked) [Example 61, [1-({[4-(4-ethyloxyphenyl)-1,4-diazepan-1-yl]sulfonyl}methyl)oct-2-yn-1-yl]hydroxyformamide] | –
40 nM | > 5000 nM | O=CN(O)C(C#CCN1CCCC1)CS(=O)(=O)N1CCN(c2ccc(F)cc2)CC1 (centres unmarked) [Example 64, [1-({[4-(4-fluorophenyl)piperazin-1-yl]sulfonyl}methyl)-4-pyrrolidin-1-ylbut-2-yn-1-yl]hydroxyformamide] | –

The remaining lines, values behind:

Structure (SMILES) | IC50 (metalloelastase (MMP-12)) | IC50 (collagenase (MMP-1)) | ED50 [1]
O=CN(O)C(C#Cc1ccc2c(c1)OCO2)CS(=O)(=O)N1CCN(c2ccc(F)cc2)CC1 (centres unmarked) [Example 1, 3-(1,3-benzodioxol-5-yl)-1 ({[4-(4-fluorophenyl)-1-piperazinyl]sulfonyl}methyl)-2-propynyl(hydroxy)formamide] | 46 nM | > 5000 nM | 0.8 mg/kg
O=CN(O)C(C#Cc1ccccc1)CS(=O)(=O)N1CCN(c2ccc(F)cc2)CC1 (centres unmarked) [Example 4, 1-({[4-(4-fluorophenyl)-1-piperazinyl]sulfonyl}methyl)-3-phenyl-2-propynyl(hydroxy)formamide] | 58 nM | > 5000 nM | –
O=CN(O)C(C#CCc1ccccc1)CS(=O)(=O)N1CCN(c2ccc(F)cc2)CC1 (centres unmarked) [Example 6, 1-({[4-(4-fluorophenyl)-1-piperazinyl]sulfonyl}methyl)-4-phenyl-2-butynyl (hydroxy)formamide] | 21 nM | > 5000 nM | –
CCCCCC#CC(CS(=O)(=O)N1CCN(c2ccc(F)cc2)CC1)N(O)C=O (centres unmarked) [Example 7, 1-({[4-(4-fluorophenyl)-1-piperazinyl]sulfonyl}methyl)-2-octynyl(hydroxy)formamide] | 20 nM | > 5000 nM | 2 mg/kg
COc1ccc(N2CCN(S(=O)(=O)CC(C#Cc3cccnc3)N(O)C=O)CC2)cc1 (centres unmarked) [Example 9, hydroxy[1-({[4-(4-methoxyphenyl)-1-piperazinyl]sulfonyl}methyl)-3-(3-pyridinyl)-2-propynyl]formamide] | 48 nM | > 5000 nM | –
COc1ccc(N2CCN(S(=O)(=O)CC(C#Cc3cccc(OC)c3)N(O)C=O)CC2)cc1 (centres unmarked) [Example 10, hydroxy[3-(3-methoxyphenyl)-1-({[4-(4-methoxyphenyl)-1-piperazinyl]sulfonyl}methyl)-2-propynyl]formamide] | 33 nM | > 5000 nM | –
CCCCCC#CC(CS(=O)(=O)N1CCC(c2ccc(OC)cc2)CC1)N(O)C=O (centres unmarked) [Example 19] | 18 nM | > 5000 nM | –
